Measurements reported in US4789667A, “External pharmaceutical composition and methods of use” (priority 1984, dated 1988).

System: carrageenan-induced edema
Assay: Carrageenan-induced edema inhibiting effect of betamethasone valerate ointment
Format: in vivo
Details: rat paw, 0.15 part betamethasone valerate, 9.85 parts enhancer, vs gel ointment base
Description: The carrageenan-induced edema inhibiting effect of the ointment was examined in accordance with the method of E. Passarella [Arzneim, Forsch. 30 (I), No. 4, pages 647-651 (1980)]. Specifically, 0.1 ml of a 1% carrageenan suspension in 0.9% NaCl solution was injected into the tip of the right paw of each rat (body weight 150-175 g). The volume of the paw was measured before the administation of carrageenan and 3, 5 and 6 hours after the carrageenan administration by a mercury displacement device. The ointment was well rubbed into the inflamed site in an amount of 100 mg.
These ointments were applied to the tip of the paw, and their edema inhibiting effects were examined.
The percent edema inhibitions were calculated on the basis of the edema formation ratio of a rat to which only the gel ointment base was administered.

## CCCCCCCCCCOC(=O)C1CCC(=O)N1 (racemic) [Compound (102), Decyl DL-pyroglutamate]
3 hrs.
  Edema inhibition: 16.3%
6 hrs.
  Edema inhibition: 39.7%
9 hrs.
  Edema inhibition: 38.3%

## CCCCCCCCCCCOC(=O)C1CCC(=O)N1 (racemic) [Compound (104), Undecyl DL-pyroglutamate]
3 hrs.
  Edema inhibition: 20.3%
6 hrs.
  Edema inhibition: 40.1%
9 hrs.
  Edema inhibition: 35.4%

## CCCCCCCCCCCCOC(=O)C1CCC(=O)N1 (racemic) [Compound (106), Dodecyl DL-pyroglutamate]
3 hrs.
  Edema inhibition: 17.4%
6 hrs.
  Edema inhibition: 40.1%
9 hrs.
  Edema inhibition: 40.0%

## CCCCCCCCCCCCCOC(=O)C1CCC(=O)N1 (racemic) [Compound (108), Tridecyl DL-pyroglutamate]
3 hrs.
  Edema inhibition: 18.8%
6 hrs.
  Edema inhibition: 35.3%
9 hrs.
  Edema inhibition: 38.1%

## CCCCCCCCCCCCCCOC(=O)C1CCC(=O)N1 (racemic) [Compound (110), Tetradecyl DL-pyroglutamate]
3 hrs.
  Edema inhibition: 17.4%
6 hrs.
  Edema inhibition: 38.0%
9 hrs.
  Edema inhibition: 38.6%

## CCCCCCCCCCCCCCCCCCCCOC(=O)C1CCC(=O)N1 (racemic) [Eicosanyl DL-pyroglutamate]
3 hrs.
  Edema inhibition: 9.2%
6 hrs.
  Edema inhibition: 11.1%
9 hrs.
  Edema inhibition: 16.7%

## CCOC(=O)C1CCC(=O)N1 (racemic) [Ethyl DL-pyroglutamate]
3 hrs.
  Edema inhibition: 9.5%
6 hrs.
  Edema inhibition: 10.2%
9 hrs.
  Edema inhibition: 12.1%

## CCCCCCCCCCCCCCCCCOC(=O)C1CCC(=O)N1 (racemic) [Heptadecyl DL-pyroglutamate]
3 hrs.
  Edema inhibition: 10.5%
6 hrs.
  Edema inhibition: 12.8%
9 hrs.
  Edema inhibition: 14.8%

## CCCCCCCOC(=O)C1CCC(=O)N1 (racemic) [Heptyl DL-pyroglutamate]
3 hrs.
  Edema inhibition: 10.7%
6 hrs.
  Edema inhibition: 10.9%
9 hrs.
  Edema inhibition: 9.5%

## CCCCCCOC(=O)C1CCC(=O)N1 (racemic) [Hexyl DL-pyroglutamate]
3 hrs.
  Edema inhibition: 11.2%
6 hrs.
  Edema inhibition: 11.5%
9 hrs.
  Edema inhibition: 11.0%

## CCCCCCCCCCCCCCCCCCOC(=O)C1CCC(=O)N1 (racemic) [Octadecyl DL-pyroglutamate]
3 hrs.
  Edema inhibition: 9.6%
6 hrs.
  Edema inhibition: 13.0%
9 hrs.
  Edema inhibition: 15.6%

## CCCCCCCCCCOC(=O)[C@@H]1CCC(=O)N1 [Compound (112), Decyl L-pyroglutamate]
3 hrs.
  Edema inhibition: 18.6%
6 hrs.
  Edema inhibition: 38.9%
9 hrs.
  Edema inhibition: 37.4%

## CCCCCCCCCCCOC(=O)[C@@H]1CCC(=O)N1 [Compound (114), Undecyl L-pyroglutamate]
3 hrs.
  Edema inhibition: 20.2%
6 hrs.
  Edema inhibition: 38.5%
9 hrs.
  Edema inhibition: 37.3%

## CCCCCCCCCCCCOC(=O)[C@@H]1CCC(=O)N1 [Compound (116), Dodecyl L-pyroglutamate]
3 hrs.
  Edema inhibition: 19.8%
6 hrs.
  Edema inhibition: 40.2%
9 hrs.
  Edema inhibition: 40.3%

## CCCCCCCCCCCCCOC(=O)[C@@H]1CCC(=O)N1 [Compound (118), Tridecyl L-pyroglutamate]
3 hrs.
  Edema inhibition: 20.0%
6 hrs.
  Edema inhibition: 38.5%
9 hrs.
  Edema inhibition: 36.8%

## CCCCCCCCCCCCCCOC(=O)[C@@H]1CCC(=O)N1 [Compound (120), Tetradecyl L-pyroglutamate]
3 hrs.
  Edema inhibition: 17.8%
6 hrs.
  Edema inhibition: 38.5%
9 hrs.
  Edema inhibition: 39.6%

## CCC=CCCCCCCCCOC(=O)[C@@H]1CCC(=O)N1 [Compound (220), 9-Dodecenyl L-pyroglutamate]
3 hrs.
  Edema inhibition: 18.3%
6 hrs.
  Edema inhibition: 37.7%
9 hrs.
  Edema inhibition: 36.9%

## CC1CCC(C(C)C)C(OC(=O)[C@@H]2CCC(=O)N2)C1 (stereo partly drawn) [Compound (308), Menthyl L-pyroglutamate]
3 hrs.
  Edema inhibition: 17.0%
6 hrs.
  Edema inhibition: 38.0%
9 hrs.
  Edema inhibition: 40.2%

## CC1(C)C2CCC1(C)C(OC(=O)[C@@H]1CCC(=O)N1)C2 (stereo partly drawn) [Compound (310), Bornyl L-pyroglutamate]
3 hrs.
  Edema inhibition: 17.0%
6 hrs.
  Edema inhibition: 39.4%
9 hrs.
  Edema inhibition: 40.2%
